Legend:
Test in all cases: relative viability (nuclei count vs DMSO), 5 days (fraction); higher = more cells survive
ABC-1 = test system: ABC-1
Summary of the method: (§1)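 Relative viability is defined as nuclei in treated wells over nuclei in vehicle wells. Duplicate plates were run and medians reported. Lung cancer cell lines in 1536-well plates were dosed by pin tool one day after seeding, with one drug or with a fixed anchor-drug dose plus five library-drug doses (not always all listed) in √10 steps, and nuclei were counted after 5 days.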

COR-L23 = test system: COR-L23
Summary of the method: as §1

ChaGo-K-1 = test system: ChaGo-K-1
Summary of the method: as §1

EMC-BAC-2 = test system: EMC-BAC-2
Summary of the method: as §1

HARA = test system: HARA
Summary of the method: as §1

HCC-15 = test system: HCC-15
Summary of the method: as §1

HCC-366 = test system: HCC-366
Summary of the method: as §1

HCC-78 = test system: HCC-78
Summary of the method: as §1

HOP-62 = test system: HOP-62
Summary of the method: as §1

LC-2-ad = test system: LC-2-ad
Summary of the method: as §1

NCI-H1395 = test system: NCI-H1395
Summary of the method: as §1

NCI-H1793 = test system: NCI-H1793
Summary of the method: as §1

NCI-H1944 = test system: NCI-H1944
Summary of the method: as §1

NCI-H1993 = test system: NCI-H1993
Summary of the method: as §1

NCI-H2023 = test system: NCI-H2023
Summary of the method: as §1

NCI-H2126 = test system: NCI-H2126
Summary of the method: as §1

NCI-H2228 = test system: NCI-H2228
Summary of the method: as §1

NCI-H23 = test system: NCI-H23
Summary of the method: as §1

NCI-H2405 = test system: NCI-H2405
Summary of the method: as §1

NCI-H358 = test system: NCI-H358
Summary of the method: as §1

NCI-H838 = test system: NCI-H838
Summary of the method: as §1

SK-LU-1 = test system: SK-LU-1
Summary of the method: as §1

O=c1cc(-c2cccc3c2Sc2ccccc2S3)oc(N2CCOCC2)c1 + COc1cccc2cc(-c3nc([C@H]4CC[C@H](C(=O)O)CC4)n4ncnc(N)c34)[nH]c12 [OSI-027] (partner 0.5 µM)
relative viability (ABC-1; first compound 0.08 µM): 0.501 | relative viability (ABC-1; first compound 0.253 µM): 0.478 | relative viability (ABC-1; first compound 0.8 µM): 0.609 | relative viability (ABC-1; first compound 2.53 µM): 0.452 | relative viability (ABC-1; first compound 8 µM): 0.445 | relative viability (COR-L23; first compound 0.08 µM): 0.8 | relative viability (COR-L23; first compound 0.253 µM): 1.21 | relative viability (COR-L23; first compound 0.8 µM): 0.892 | relative viability (COR-L23; first compound 2.53 µM): 0.801 | relative viability (COR-L23; first compound 8 µM): 1 | relative viability (ChaGo-K-1; first compound 0.08 µM): 0.524 | relative viability (ChaGo-K-1; first compound 0.253 µM): 0.615 | relative viability (ChaGo-K-1; first compound 0.8 µM): 0.479 | relative viability (ChaGo-K-1; first compound 2.53 µM): 0.385 | relative viability (ChaGo-K-1; first compound 8 µM): 0.63 | relative viability (EMC-BAC-2; first compound 0.08 µM): 0.341 | relative viability (EMC-BAC-2; first compound 0.253 µM): 0.416 | relative viability (EMC-BAC-2; first compound 0.8 µM): 0.354 | relative viability (EMC-BAC-2; first compound 2.53 µM): 0.392 | relative viability (EMC-BAC-2; first compound 8 µM): 0.406 | relative viability (HARA; first compound 0.08 µM): 0.458 | relative viability (HARA; first compound 0.253 µM): 0.624 | relative viability (HARA; first compound 0.8 µM): 0.566 | relative viability (HARA; first compound 2.53 µM): 0.424 | relative viability (HARA; first compound 8 µM): 0.481 | relative viability (HCC-15; first compound 0.08 µM): 0.633 | relative viability (HCC-15; first compound 0.253 µM): 0.765 | relative viability (HCC-15; first compound 0.8 µM): 0.733 | relative viability (HCC-15; first compound 2.53 µM): 0.634 | relative viability (HCC-15; first compound 8 µM): 0.611 | relative viability (HCC-366; first compound 0.08 µM): 0.89 | relative viability (HCC-366; first compound 0.253 µM): 1.2 | relative viability (HCC-366; first compound 0.8 µM): 0.692 | relative viability (HCC-366; first compound 2.53 µM): 0.723 | relative viability (HCC-366; first compound 8 µM): 0.775 | relative viability (HCC-78; first compound 0.08 µM): 0.341 | relative viability (HCC-78; first compound 0.253 µM): 0.385 | relative viability (HCC-78; first compound 0.8 µM): 0.295 | relative viability (HCC-78; first compound 2.53 µM): 0.344 | relative viability (HCC-78; first compound 8 µM): 0.339 | relative viability (HOP-62; first compound 0.08 µM): 0.888 | relative viability (HOP-62; first compound 0.253 µM): 1.17 | relative viability (HOP-62; first compound 0.8 µM): 0.913 | relative viability (HOP-62; first compound 2.53 µM): 0.745 | relative viability (HOP-62; first compound 8 µM): 1.07 | relative viability (LC-2-ad; first compound 0.08 µM): 0.814 | relative viability (LC-2-ad; first compound 0.253 µM): 0.934 | relative viability (LC-2-ad; first compound 0.8 µM): 0.792 | relative viability (LC-2-ad; first compound 2.53 µM): 0.741 | relative viability (LC-2-ad; first compound 8 µM): 0.727 | relative viability (NCI-H1395; first compound 0.08 µM): 0.594 | relative viability (NCI-H1395; first compound 0.253 µM): 0.581 | relative viability (NCI-H1395; first compound 0.8 µM): 0.601 | relative viability (NCI-H1395; first compound 2.53 µM): 0.577 | relative viability (NCI-H1395; first compound 8 µM): 0.683 | relative viability (NCI-H1793; first compound 0.08 µM): 0.227 | relative viability (NCI-H1793; first compound 0.253 µM): 0.29 | relative viability (NCI-H1793; first compound 0.8 µM): 0.248 | relative viability (NCI-H1793; first compound 2.53 µM): 0.227 | relative viability (NCI-H1793; first compound 8 µM): 0.267 | relative viability (NCI-H1944; first compound 0.08 µM): 0.376 | relative viability (NCI-H1944; first compound 0.253 µM): 0.403 | relative viability (NCI-H1944; first compound 0.8 µM): 0.367 | relative viability (NCI-H1944; first compound 2.53 µM): 0.34 | relative viability (NCI-H1944; first compound 8 µM): 0.38 | relative viability (NCI-H1993; first compound 0.08 µM): 0.539 | relative viability (NCI-H1993; first compound 0.253 µM): 0.543 | relative viability (NCI-H1993; first compound 0.8 µM): 0.548 | relative viability (NCI-H1993; first compound 2.53 µM): 0.562 | relative viability (NCI-H1993; first compound 8 µM): 0.637 | relative viability (NCI-H2023; first compound 0.08 µM): 0.353 | relative viability (NCI-H2023; first compound 0.253 µM): 0.379 | relative viability (NCI-H2023; first compound 0.8 µM): 0.396 | relative viability (NCI-H2023; first compound 2.53 µM): 0.315 | relative viability (NCI-H2023; first compound 8 µM): 0.256 | relative viability (NCI-H2126; first compound 0.08 µM): 0.672 | relative viability (NCI-H2126; first compound 0.253 µM): 0.813 | relative viability (NCI-H2126; first compound 0.8 µM): 0.581 | relative viability (NCI-H2126; first compound 2.53 µM): 0.535 | relative viability (NCI-H2126; first compound 8 µM): 0.828 | relative viability (NCI-H2228; first compound 0.08 µM): 0.554 | relative viability (NCI-H2228; first compound 0.253 µM): 0.719 | relative viability (NCI-H2228; first compound 0.8 µM): 0.538 | relative viability (NCI-H2228; first compound 2.53 µM): 0.389 | relative viability (NCI-H2228; first compound 8 µM): 0.544 | relative viability (NCI-H23; first compound 0.08 µM): 0.511 | relative viability (NCI-H23; first compound 0.253 µM): 0.739 | relative viability (NCI-H23; first compound 0.8 µM): 0.519 | relative viability (NCI-H23; first compound 2.53 µM): 0.54 | relative viability (NCI-H23; first compound 8 µM): 0.697 | relative viability (NCI-H2405; first compound 0.08 µM): 0.604 | relative viability (NCI-H2405; first compound 0.253 µM): 0.647 | relative viability (NCI-H2405; first compound 0.8 µM): 0.61 | relative viability (NCI-H2405; first compound 2.53 µM): 0.61 | relative viability (NCI-H2405; first compound 8 µM): 0.618 | relative viability (NCI-H358; first compound 0.08 µM): 0.836 | relative viability (NCI-H358; first compound 0.253 µM): 0.999 | relative viability (NCI-H358; first compound 0.8 µM): 0.815 | relative viability (NCI-H358; first compound 2.53 µM): 0.807 | relative viability (NCI-H358; first compound 8 µM): 0.869 | relative viability (NCI-H838; first compound 0.08 µM): 0.344 | relative viability (NCI-H838; first compound 0.253 µM): 0.417 | relative viability (NCI-H838; first compound 0.8 µM): 0.312 | relative viability (NCI-H838; first compound 2.53 µM): 0.339 | relative viability (NCI-H838; first compound 8 µM): 0.41 | relative viability (SK-LU-1; first compound 0.08 µM): 0.322 | relative viability (SK-LU-1; first compound 0.253 µM): 0.375 | relative viability (SK-LU-1; first compound 0.8 µM): 0.335 | relative viability (SK-LU-1; first compound 2.53 µM): 0.364 | relative viability (SK-LU-1; first compound 8 µM): 0.301

— the supplement of paper PMC10307832
